Results from PMC10854695, “Using Flavonoid Substitution Status to Predict Anticancer Effects in Human Melanoma Cancers: An In Vitro Study” (Cancers, 2024).
Read-outs that look alike come from different tables or passages of the source.

How the values were obtained:
[1] = tested on: caspases, PARP, phospho-RSK in C32 cells; experiment: Western immunoblot of apoptosis mediators and RSK, C32; assay type: cell-based, human; details: C32, 48 h, Western blot
Description: (§1) Floating cells were harvested by centrifugation of the conditioned media (300× g, 5 min). Cell pellet and adherent cells were lysed in a cell lysis buffer supplemented with inhibitors of proteases and phosphatases. The cell lysate was sonicated (2 × 10 s) on ice with an ultrasonic homogenizer (UP200S, Hielscher Ultrasonics GmbH, Teltow, Germany) and centrifuged for 10 min at 10,000× g. The supernatant was collected and stored in a freezer at −70 °C. Protein concentrations in the cell supernatants were determined using a Lowry assay. Obtained proteins were dissolved on SDS-PAGE gels (7.5%, 10%, or 12%) using the Mini-Protean Tetra system. The proteins were transferred to nitrocellulose membranes using the Mini Trans-Blot Cell wet blotting system. The 5% skim milk was used to block membranes. Then, membranes were probed for 24 h at 4 °C with the following antibodies: anti-phospho-RSK, anti-RSK, anti-PARP, anti-cleaved PARP, anti-caspase-8, anti-caspase-9, anti-caspase-7, anti-caspase-3, and anti-actin. Membranes were incubated with an ECL-HRP (enhanced chemiluminescence-horseradish peroxidase) substrate, and the signal was spotted using the BioSpectrum Imaging System and VisionWorks LS software 7.0 (Ultra-Violet Products, Ltd., San Gabriel, CA, USA). The intensity of the bands was quantified by densitometric analysis using UVIBand software, version 15.08d (Uvitec Ltd., Cambridge, UK).

A375 melanoma cells [2] = experiment: Neutral red uptake (NRU) assay, A375; details: Homo sapiens, read-out: IC50, cytotoxic activity, NRU assay
[3] = tested on: human skin fibroblasts (CCD25Sk); experiment: [3H]-thymidine incorporation (DNA biosynthesis), normal cells; assay type: cell-based; details: Homo sapiens, Skin fibroblast, read-out: IC50, effect on DNA biosynthesis ([3H]-thymidine incorporation)
Description: (§2) The inhibition of DNA biosynthesis was evaluated using [^3H]-thymidine incorporation into the DNA of melanoma cells (C32, A375) and fibroblasts treated with the studied compounds [21]. The cells were briefly seeded in 24-well plates (1 × 10^5 cells per well) and allowed to adhere for 24 h. […] After incubation for 24, 48, and 72 h, the cells were rinsed three times with PBS. Then, cells were lysed in 1 mL of 0.1 M NaOH containing 1% SDS. The cell lysate was moved into scintillation vials containing scintillation liquid, and the radioactivity of the samples was measured using a liquid scintillation analyzer (Perkin-Elmer, Waltham, MA, USA).

[4] = Neutral red uptake (NRU) assay, normal cells; details: human, human skin fibroblasts (CCD25Sk)
Description: (§3) The NRU (neutral red uptake) was conducted as previously described by Szoka and co-workers, with some modifications [22]. Briefly, melanoma cells and fibroblasts were seeded in microplates at the density of 1 × 10^4 cells per well and allowed to adhere for 24 h. […] After treatment, the culture medium was replaced with a neutral red solution (40 µg/mL). An additional 2 h of incubation was performed. The neutral red solution was then removed and the neutral red accumulated in the cells was dissolved in 50% EtOH with 1% of the glacial acetic acid. The absorbance was estimated at 540 nm and IC50 values were calculated using GraphPad Prism software (GraphPad Software, San Diego, CA, USA).

[5] = tested on: cleaved caspase-3 and cleaved caspase-7 in A375 cells; experiment: Immunofluorescence of cleaved caspase-3/-7, A375; assay type: cell-based, human; details: A375, 48 h, immunofluorescent staining
Description: Firstly, to examine fluorescent signals, cells were placed in the bottom of 96-well black plates at 1 × 10^4 cells per well and permitted to adhere for 24 h. […] After incubating and removing the medium, cells were fixed in 4% paraformaldehyde for 15 min. Later, cells were rinsed three times with PBS and permeabilized with 0.1% Triton X-100 for 5 min at room temperature. The 10% heat-inactivated goat serum in the PBS was used to block non-specific binding. Subsequently, cells were treated with the following antibodies overnight: anti-cleaved caspase 3 and anti-cleaved caspase-7. […] Cell nuclei were stained with Hoechst 33342 and F-actin was stained with Phalloidin-Atto 488. Fluorescent signals were captured using a BD Pathway 855 confocal microscope (Becton Dickinson, Franklin Lakes, NJ, USA). The mean fluorescence intensity was calculated using ImageJ software (National Institutes of Health, Bethesda, Rockville, MD, USA).

C32 melanoma cells [6] = experiment: MTT cell viability assay, C32; details: Homo sapiens, read-out: IC50, cytotoxic activity, MTT test;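 note: MTT added for 2 h, cells lysed in DMSO, absorbance read at 570 nm, compound vehicle kept at or below 0.1% DMSO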
Description: (§4) The MTT colorimetric assay was performed as a preliminary evaluation of the cytotoxicity of the selected flavonoids according to the method described and validated by Strawa et al. [21]. Briefly, melanoma cells and fibroblasts were seeded in 96-well microplates at a density of 1 × 10^4 cells per well. Fibroblasts were used as a control cell line in order to assess the selectivity of the compounds. […] Subsequently, the cells were washed with PBS, incubated with MTT solution for 2 h, and lysed with dimethyl sulfoxide (DMSO) supplemented with 1% (v/v) Sorensen’s glycine buffer. The absorbance was measured using a microplate reader (EPOCH 2, BioTek, Winooski, VT, USA) at a wavelength of 570 nm. The compounds were used at a final DMSO concentration of no more than 0.1% (v/v) in each well. The results were generated from at least three independent experiments. […] The IC50 values were calculated with GraphPad Prism 9 software (GraphPad Software, San Diego, CA, USA).

[7] = tested on: cleaved caspase-3 and cleaved caspase-7 in C32 cells; experiment: Immunofluorescence of cleaved caspase-3/-7, C32; assay type: cell-based, human; details: C32, 48 h, immunofluorescent staining
C32 melanoma cells [8] = experiment: [3H]-thymidine incorporation (DNA biosynthesis), C32; assay type: cell-based, human; details: read-out: IC50, effect on DNA biosynthesis ([3H]-thymidine incorporation)
Description: as §2

A375 melanoma cells [9] = experiment: Apoptosis assay, annexin V/PI flow cytometry, A375; assay type: cell-based, human; details: 48 h
Description: (§5) Firstly, cells were placed in 6-well plates at a density of 1 × 10^5 cells per well and allowed to adhere for 24 h. Then, cells were treated with 25 µM, 50 µM, and 100 μM of the selected flavonoids (1, 6, 15, 16, 17, 37) and incubated for 48 h. Floating and adherent cells were collected and assayed using the manufacturer’s protocol supported by the Dead Cell Apoptosis Kit for flow cytometry. Concisely, 100 μL of an annexin-binding buffer containing a 5 μL annexin V-FITC conjugate solution and 1 μg/mL PI (propidium iodide) was used to disperse the cells. After 15 min of incubation, an additional 400 μL of the mentioned buffer was added. The cells were analyzed with a DxFLEX flow cytometer (Beckman Coulter, Brea, CA, USA).

C32 melanoma cells [10] = experiment: Neutral red uptake (NRU) assay, C32; details: Homo sapiens
Description: as §3

A375 melanoma cells [11] = experiment: [3H]-thymidine incorporation (DNA biosynthesis), A375; assay type: cell-based, human; details: read-out: IC50, effect on DNA biosynthesis ([3H]-thymidine incorporation)
Description: as §2

[12] = tested on: caspases, PARP, phospho-RSK in A375 cells; experiment: Western immunoblot of apoptosis mediators and RSK, A375; assay type: cell-based, human; details: A375, 48 h, Western blot
Description: as §1

[13] = MTT cell viability assay, normal cells; details: human, human skin fibroblasts (CCD25Sk);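 note: fibroblasts served as non-cancer comparison line for selectivity versus melanoma cells, MTT reduction read as absorbance at 570 nm after 2 h dye exposure, compounds in ≤0.1% DMSO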
Description: as §4

A375 melanoma cells [14] = experiment: MTT cell viability assay, A375;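 note: Read-out is formazan absorbance at 570 nm after 2 h with MTT, with compounds in at most 0.1% v/v DMSO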
Description: as §4

A375 cells [15] = tested on: A375 cells; design: method as in PMID 26911838; details: 10 and 20 μM, dose-dependent; cited from earlier work
in vitro = details: human
Description: as §4

C32 melanoma cells [16] = experiment: Apoptosis assay, annexin V/PI flow cytometry, C32; assay type: cell-based, human; details: C32, 25 µM, 48 h
Description: as §5

A375 cells [17] = tested on: A375 cells; design: method as in PMID 28260058; details: 40 µM; cited from earlier work
[18] = tested on: SK-MEL-2 malignant melanoma cell line; design: method as in PMID 36991237; details: read-out: IC50, inhibition of viability, MTS test; cited from earlier work
[19] = tested on: G-361 malignant melanoma cell line; design: method as in PMID 36991237; details: read-out: IC50, inhibition of viability, MTS test; cited from earlier work
[20] = C32, 24 h, read-out: IC50, cytotoxic activity, NRU assay, C32, 24 h
[21] = C32, 48 h, read-out: IC50, cytotoxic activity, NRU assay, C32, 48 h
[22] = C32, 72 h, read-out: IC50, cytotoxic activity, NRU assay, C32, 72 h
[23] = Homo sapiens, A-375, A375, 24 h
[24] = Homo sapiens, A-375, A375, 48 h
[25] = Homo sapiens, A-375, A375, 72 h
[26] = Homo sapiens, A-375, 24 h, read-out: IC50, cytotoxic activity, MTT test, A375, 24 h
[27] = Homo sapiens, A-375, 48 h, read-out: IC50, cytotoxic activity, MTT test, A375, 48 h
[28] = Homo sapiens, A-375, 72 h, read-out: IC50, cytotoxic activity, MTT test, A375, 72 h

IC50 at 24 h [4] [µM]	IC50 at 48 h [4] [µM]	IC50 at 72 h [4] [µM]	IC50 (C32 melanoma cells [8]; Homo sapiens, C32, C32, 24 h) [µM]	IC50 (C32 melanoma cells [8]; Homo sapiens, C32, C32, 48 h) [µM]	IC50 (C32 melanoma cells [8]; Homo sapiens, C32, C32, 72 h) [µM]	IC50 (A375 melanoma cells [11]; A375, 48 h) [µM]	IC50 (A375 melanoma cells [11]; [23]) [µM]	Compound	IC50 (A375 melanoma cells [2]; A-375, 24 h) [µM]	IC50 (A375 melanoma cells [2]; A-375, 48 h) [µM]	IC50 (A375 melanoma cells [2]; A-375, 72 h) [µM]	IC50 ([3]; 24 h) [µM]	IC50 ([3]; 48 h) [µM]	IC50 ([3]; 72 h) [µM]	IC50 (C32 melanoma cells [6]; C32, 24 h) [µM]	IC50 (C32 melanoma cells [6]; C32, 48 h) [µM]	IC50 (C32 melanoma cells [6]; C32, 72 h) [µM]	IC50 (C32 melanoma cells [10]; [20]) [µM]	IC50 (C32 melanoma cells [10]; [21]) [µM]	IC50 (C32 melanoma cells [10]; [22]) [µM]	further results
> 200	45.2 ± 2.6	21.4 ± 1.7	> 200	30.9 ± 2.2	24.5 ± 1.81	38.5 ± 2.9	> 200	O=c1cc(-c2ccc(O)c(O)c2)oc2cc(O)cc(O)c12 [Compound 6, luteolin]	58.1 ± 4.2	25.7	23.9 ± 0.23	> 200	> 200	> 200	> 200	42.1 ± 3.5	13.1 ± 1.3	41.3 ± 3.8	13.1	12.6 ± 1.2	cleaved PARP and caspase-9 [1]: generated cleaved PARP and caspase-9; level of cleaved caspase-3 [5]: slightly increased; caspase-3 expression [7]: notably extended; level of the cleaved caspase-7 [7]: slightly increased; level of early apoptotic cells (A375 melanoma cells [9]; A375, 25 µM): 63.6 ± 6.1%; level of late apoptotic cells (A375 melanoma cells [9]; A375, 25 µM): 13.0 ± 1.8%; IC50 (A375 melanoma cells [11]; [24]): 38.6 ± 0.91 µM; IC50 (A375 melanoma cells [11]; [25]): 30.9 ± 1.8 µM; cleavage of initiator caspases, caspase-9 and caspase-8 [12]: cleavage of both initiator caspases; levels of the caspases-3 and -7 zymogens [12]: decreased levels; IC50 at 24 h [13]: > 200 µM; IC50 at 48 h [13]: 69.7 ± 5.2 µM; IC50 at 72 h [13]: 20.1 ± 1.4 µM; IC50 (A375 melanoma cells [14]; [26]): > 200 µM; IC50 (A375 melanoma cells [14]; [27]): 38.2 µM; IC50 (A375 melanoma cells [14]; [28]): 24.6 ± 1.6 µM; IC50 (A375 melanoma cells [14]; read-out: IC50, cytotoxic activity, MTT test, A375, 48 h): 38.2 ± 4.1 µM
> 200	87.8 ± 5.8	58 ± 3.2	> 200	27.1 ± 0.49	22.5 ± 1.2	28.6 ± 1.8	87.7 ± 4.2	O=c1cc(-c2ccc(O)cc2)oc2cc(O)cc(O)c12 [Compound 1, apigenin]	64.5 ± 4.3	24.7 ± 2.4	21.2 ± 1.4	188 ± 8.1	189 ± 9.5	> 200	> 200	63.1 ± 4.7	31.8 ± 2.5	100 to 200	25.7 ± 1.6	22.4 ± 1.5	cleaved PARP and caspase-9 [1]: generated cleaved PARP and caspase-9; A375 cell motility and invasion (A375 cells [15]): significantly inhibited; IC50 at 24 h (in vitro): > 200 µM; IC50 at 48 h (in vitro): > 200 µM; IC50 at 72 h (in vitro): 100 to 200 µM; level of cleaved caspase-3 [5]: slightly increased; caspase-3 expression [7]: notably extended; IC50 (C32 melanoma cells [8]; C32, 48 h): 27 ± 1.4 µM; level of early apoptotic cells (A375 melanoma cells [9]; A375, 50 µM): 34.2 ± 2.8%; level of late apoptotic cells (A375 melanoma cells [9]; A375, 50 µM): 7.1 ± 1.6%; percentage of early apoptotic cells (C32 melanoma cells [16]): 13.3 ± 2.4%; percentage of late apoptotic cells (C32 melanoma cells [16]): 29.4 ± 3.3%; IC50 (A375 melanoma cells [11]; [24]): 28.6 ± 0.84 µM; IC50 (A375 melanoma cells [11]; [25]): 23.4 ± 1.6 µM; A375 cell viability, MTT assay (A375 cells [17]): decreased A375 cell viability; cleavage of initiator caspases, caspase-9 and caspase-8 [12]: cleavage of both initiator caspases; levels of the caspases-3 and -7 zymogens [12]: decreased levels; IC50 (A375 melanoma cells [14]; [26]): > 200 µM; IC50 (A375 melanoma cells [14]; [27]): 31.9 ± 3 µM; IC50 (A375 melanoma cells [14]; [28]): 20.7 ± 1.5 µM
> 200	100 to 200	72.9 ± 5.6	38.1 ± 1.5	18.4 ± 0.42	12.8 ± 0.9	29.7 ± 1.6	62.1 ± 3.9	O=c1cc(-c2ccccc2)oc2c(O)c(O)ccc12 [Compound 16, 7,8-dihydroxyflavone]	100 to 200	36 ± 3.5	27.4 ± 2.4	81.6 ± 5.8	64.6 ± 2.8	37 ± 2.5	100 to 200	39.2 ± 2.6	26.2 ± 2.8	> 200	19.9 ± 1.2	16.5 ± 2.1	IC50 [18]: 200 to 250 µM; level of the cleaved caspase-7 [7]: slightly increased; IC50 (C32 melanoma cells [8]; C32, 48 h): 18.4 ± 1.4 µM; level of early apoptotic cells (A375 melanoma cells [9]; A375, 25 µM): 49.1 ± 3.9%; level of late apoptotic cells (A375 melanoma cells [9]; A375, 25 µM): 6.4 ± 1.5%; IC50 [19]: 200 to 250 µM; IC50 (A375 melanoma cells [11]; [24]): 29.7 ± 0.62 µM; IC50 (A375 melanoma cells [11]; [25]): 20.5 ± 2.2 µM; cleavage of caspase-9 [12]: weak cleavage; expression of cleaved caspase-8 [12]: increased; phosphorylation of the RSK protein [12]: impaired; IC50 at 24 h [13]: > 200 µM; IC50 at 48 h [13]: 100 to 200 µM; IC50 at 72 h [13]: 93.3 ± 8 µM; IC50 (A375 melanoma cells [14]; [26]): 100 to 200 µM; IC50 (A375 melanoma cells [14]; [27]): 33.2 ± 3.2 µM; IC50 (A375 melanoma cells [14]; [28]): 20.5 ± 2.2 µM
